“Also recorded” adds a separate entry of the source. Ends that are not written are not given here.
Tests used:
[1] = test system: TC-3 cells; assay: Inhibition of IL-1 induced pancreatic beta-cell death; assay type: cell-based; details: 1 μM single addition, IL-1 10 ng/ml, two days
Procedure: Inhibition of IL-1 induced pancreatic beta-cell death by the D-TAT-IB1(s) peptide was analyzed. TC-3 cells were incubated for 30 minutes with one single addition of the indicated peptides (1, μM), then IL-1 (10 ng/ml) was added.
Apoptotic cells were then counted after two days of incubation with IL-1 by use of Propidium Iodide and Hoechst 33342 nuclear staining. A minimum of 1,000 cells were counted for each experiment.
Long term inhibition of IL-1P induced cell-death by the D-TAT-IB1 peptide was also analyzed. TC-3 cells were incubated for 30 minutes with one single addition of the indicated peptides (1 μM), then IL-1 (10 ng/ml) was added, followed by addition of the cytokine every two days. Apoptotic cells were then counted after 15 days of incubation with IL-1 by use of propidium iodide and Hoechst 33342 nuclear staining. […] A minimum of 1.000 cells were counted for each experiment.

[2] = test system: bleomycin induced lung fibrosis; assay: Bleomycin (BLM) induced lung fibrosis; assay type: in vivo, C57BL/6 mice; details: for cell recruitment in bronchoalveolar lavage space: 3 times in 10 days
Text: In order to determine the activity of the exemplary all-D retro-inverso IB(s) peptide XG-102 (SEQ ID NO: 233) in the treatment of Chronic Obstructive Pulmonary Disease (COPD) XG-102 (SEQ ID NO: 233) is used in an animal model of Bleomycin induced acute lung inflammation and fibrosis. The protocol of bleomycin induced inflammation and fibrosis has been described before in the literature. The aim of the Experiment was to investigate the effect of XG-102 (SEQ ID NO: 233) by subcutaneous (s.c.) route on neutrophil recruitment in broncho alveolar lavage (BAL) and lung in bleomycin induced inflammation and fibrosis: • at 1 day after a single bleomycin administration (10 mg/kg) • and at day 10 with the development of fibrosis
1) Method and Experimental Approach • The test compound XG-102 (SEQ ID NO: 233) at two doses and vehicle control were given s.c. with a single intranasal administration of bleomycin and mice were analyzed after 1 and 10 days. The animals used in the model were 10 C57BL/6 mice (8 weeks old) per group. The experimental groups included vehicle, 0.001 mg/kg XG-102 (SEQ ID NO: 233) and 0.1 mg/kg XG-102 (SEQ ID NO: 233), and the treatment consisted of repeated sub-cutaneous administration of XG-102 (SEQ ID NO: 233), prior to bleomycin administration then every 3 days. Acute lung inflammation at 24 h was monitored by BAL lavage, cytology, cell counts, and lung myeloperoxidase activity. The effect of the compound was compared with vehicle controls. Lung fibrosis was assessed histologically using hematoxylin and eosin staining at day 10 after the single dose of bleomycin.
1.1) Bleomycin Administration • Bleomycin sulfate in saline (10 mg/kg body weight) from Bellon Laboratories (Montrouge, France) or saline were given through the airways by nasal instillation in a volume of 40 μL under light ketamine-xylasine anesthesia. […]
1.4) Cell Count and Determination • Total cell count was determined in BAL fluid using a Malassez hemocytometer. […]

dqsrpvqpflnIttprkprpprrrqrrkkrg (DQSRPVQPFLNLTTPRKPRPPRRRQRRKKRG; not fully specified (some residues); printed as dqsrpvqpflnIttprkprpprrrqrrkkrg) [XG-102]
IL-1 induced apoptosis [1]: decreased IL-1 induced apoptosis to a similar extent as L-TAT-IB peptides
cell recruitment in bronchoalveolar lavage space ([2]; 0.001 mg/kg s.c.): reduced significantly the lymphocyte recruitment and the number of total cells recruited; also recorded: decreases the Bleomycin-induced later inflammation
histology: inflammatory cells accumulation, fibrotic areas, loss of lung architecture ([2]; 0.001 mg/kg, day 10): A decrease of these parameters was observed; also recorded: attenuates the Bleomycin-induced fibrosis
cell recruitment in bronchoalveolar lavage space ([2]; 0.1 mg/kg s.c.): had no effect

Reference: patent publication US10023615B2, “Efficient transport into white blood cells” (priority 2008, dated 2018)
